These results are taken from publication PMC3865801 (Journal of Medicinal Chemistry, 2013).

Structures are written as SMILES.

Data set [1] is described as follows: Plasma pharmacokinetics in male CD-1 mice. The format is in vivo, mouse. The conditions noted are these: 5 mg/kg iv; for AUC0–∞ / Cmax / T1/2: plasma. The procedure: Blood was collected by cardiac puncture at 5 and 30 min and 1, 2, 4, and 6 h postdose in ice-cold K2-EDTA tubes. Plasma samples were separated by centrifuging at 4000g for 8 min and stored at −80 °C until analysis. Frozen plasma was thawed on wet ice on the day of analysis. […] A Zorbax SB-C18, 50 mm × 2.1 mm 5 μm column was used at a 0.5 mL/min flow rate, and elution was with a gradient of organic phase (A), acetonitrile in water (80:20 v/v) containing 0.01% formic acid and aqueous phase (B), water containing 0.01% formic acid. LC–MS/MS analysis was carried out using multiple reaction monitoring. […] Plasma samples from 5 min, 30 min, and 1 h were diluted with control mouse plasma (1:20 for 5 min, 1:10 for 30 min and 1 h samples) to fit within this range. The resultant concentration vs time data were fitted (using Phoenix WinNonlin 6.2; Pharsight Corporation, St. Louis, MO) to calculate pharmacokinetic parameters including half-life (T1/2), maximum concentration (Cmax), area under the curve (AUC0–∞), volume of distribution (V), and clearance (Cl).

Data set [2] in a line: Toxicity to KHYG-1 NK cells (Trypan blue exclusion). The format is cell-based, human. The conditions noted are these: human, viability after 24 h; for viability at 4 h, 20 µM: 4 h exposure, Trypan blue, ± SEM. Here is the method:
(§1) The toxicity assay was carried out in exactly the same manner as the killing assay above, but instead of adding the labeled K562 target cells, 100 μL of RPMI 0.1% BSA was added. Cells were incubated for 4 h at 37 °C and then washed ×3 in RPMI + 0.1% BSA. […] Trypan blue was added to each well. Viable (clear) cells and total (clear + blue) cells were counted, and the percentage of viable cells was calculated compared to DMSO treated cell control (% viability).

The nature of data set [3]: Solubility in SPR running buffer. The format is physicochemical. The following applies: HEPES buffered saline running buffer with 5% DMSO; sodium salts, HEPES running buffer containing 5% DMSO. Here is the method: Binding experiments with surface immobilized wild-type perforin monomers on a S-series CM5 sensor chip (GE Healthcare Life Sciences) were carried out using a Biacore T200 SPR machine (GE Healthcare Life Sciences). […] The initial and running buffers were made from a 10× stock solution of HEPES buffered saline (HBS). 10× HBS (50 mL) was diluted to 500 mL with water and filtered through a 0.22 μm filter (initial buffer). This initial buffer (380 mL) was added to DMSO (20 mL) to prepare the 5% DMSO running buffer. Stock solutions (2.5 mM) of compound were prepared in 100% DMSO. […] A solvent correction was run before and after the injections to account for differences in DMSO concentrations between buffer and analyte solutions.

A short description of data set [4]: Aqueous solubility of parent compound and sodium salt.
Another data set relates to KHYG-1 NK cells. Kind of data set: Toxicity to KHYG-1 NK cells (Trypan blue exclusion). The format is cell-based, human. The following applies: 5 μM, viability after 24 h. Here is the method:
as §1

In data set [5] the target is T1, perforin delivered by primary human natural killer cells to HeLa cells (Homo sapiens, UniProt P14222).
T1 construct: degranulation and the release of perforin into the synaptic cleft; endogenous in cells; host or cells: primary human NK cells from peripheral blood of four donors (HeLa target cells)
T1 sequence (P14222 22-555): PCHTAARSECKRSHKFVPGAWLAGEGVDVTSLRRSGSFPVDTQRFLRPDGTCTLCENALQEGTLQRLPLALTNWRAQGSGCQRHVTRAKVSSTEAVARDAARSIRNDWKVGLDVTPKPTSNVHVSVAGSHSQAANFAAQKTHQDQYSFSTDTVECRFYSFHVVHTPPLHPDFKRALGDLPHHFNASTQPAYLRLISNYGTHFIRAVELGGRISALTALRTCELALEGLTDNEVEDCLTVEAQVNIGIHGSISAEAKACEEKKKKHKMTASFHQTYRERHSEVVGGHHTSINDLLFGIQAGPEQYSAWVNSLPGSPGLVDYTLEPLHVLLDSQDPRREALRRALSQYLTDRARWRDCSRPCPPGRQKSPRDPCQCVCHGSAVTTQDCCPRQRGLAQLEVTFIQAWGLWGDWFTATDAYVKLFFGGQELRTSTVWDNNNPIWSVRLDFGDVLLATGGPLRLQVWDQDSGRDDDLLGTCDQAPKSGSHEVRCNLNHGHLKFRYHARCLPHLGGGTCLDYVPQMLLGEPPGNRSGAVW
Description: Time-lapse microscopy of the cytotoxic immunological synapse (primary NK cells and HeLa targets). The format is cell-based. The following applies: 20 μM, primary human NK cells, HeLa targets. Here is the method: Time-lapse microscopy and image analysis were performed as described previously.[42] In brief, primary human natural killer cells were isolated from the peripheral blood of four unrelated donors using negative selection, as described in the above reference. […] All experiments were performed at 37 °C/5% CO2.

In the case of `CC1c2cc(-c3ccc(/C=C4/NC(=S)NC4=O)s3)ccc2C(=O)N1C` (centres unmarked) [compound 135, (E,Z)-2,3-Dimethyl-5-(5-((5-oxo-2-thioxoimidazolidin-4-ylidene)methyl)thiophen-2-yl)isoindolin-1-one], in data set [1], the “Cl (clearance)” value is reported as 4346 mL h^–1 kg^–1, the “V (volume of distribution)” value worked out at 1.478 L/kg, the “AUC0–∞” value is 1151 ng·h/mL and the Cmax is 4488 ng/mL. Moreover, the T1/2 in data set [1] amounted to 1.15 h. In addition, the viability at 4 h, 20 µM in data set [2] (KHYG-1 NK cells) is 74 ± 8.3%. In addition, the solubility in data set [3] is at most 2.5 µM. In addition, in data set [4] (aqueous medium (not further specified)), the solubility turned out to be 1.32 µg/mL.
Turning to `O=C1NC(=S)N/C1=C/c1ccc(-c2ccc3c(c2)CCNC3=O)s1` [compound 167], in data set [1], the “Cl (clearance)” value turned out to be 5237 mL h^–1 kg^–1, the “V (volume of distribution)” value turned out to be 2.75 L/kg, the “AUC0–∞” value was 955 ng·h/mL and the Cmax turned out to be 4513 ng/mL. In data set [1], this molecule displayed a T1/2 of 1.30 h. The KHYG-1 viability result in the data set on KHYG-1 NK cells is recorded as “lack of NK toxicity”. The molecule further yielded a viability at 4 h, 5 µM in data set [2] (KHYG-1 NK cells, 5 μM) of 82 ± 3.6%. The viability at 4 h, 20 µM in data set [2] worked out at 38 ± 7.8%. Also, the solubility in data set [3] is at most 2.5 µM. Further, the “synapses in which formation of the perforin pore was blocked” value in data set [5] is 40%. For the same molecule, the “killer cells that delivered functional perforin to the target” value in data set [5] (DMSO control: every cell) turned out to be 60%. In addition, the solubility in data set [4] turned out to be 0.53 µg/mL.

One may read the Cmax as the highest concentration seen after dosing. The viability is a per cent measure of how many cells are alive, often set against a control. A lower viability goes with more harm to the cells. The term solubility denotes how much of the substance goes into solution per volume.
